We go through one compound from patent US6699877B2 (Gruenenthal GmbH, priority 2000, dated 2004).

The target of this assay is T1, NMDA receptor channel (Rattus norvegicus, UniProt P35439).
T1 construct: were micro-injected with total RNA from brain tissue of adult rats; expressed in transfected cells; host or cells: Xenopus laevis oocytes injected with total RNA from adult rat brain
Put plainly: NMDA/glycine-induced ionic currents in RNA-injected Xenopus oocytes (two-electrode voltage clamp). The class given is cell-based. The method, then: NMDA/Glycine-induced Ionic Currents in RNA-injected Xenopus Oocytes
The experiment to determine functional changes in the NMDA receptor channel due to the compound according to the invention of Formula I was carried out on oocytes of the South African clawed frog, Xenopus laevis. Neuronal NMDA receptor channels were formed for this purpose after injection of RNA from rats' brain into oocytes and were measured by coapplication of NMDA and glycine-activated ionic currents.
Xenopus oocytes from stages V and VI (Dumont, J. N., Journal of Morphology, Vol. 136, 1972) were micro-injected with total RNA from brain tissue of adult rats (100-130 ng/cell) and kept in the culture medium (composition in mmol/l: 88.0 NaCl, 1.0 KCl, 1.5 CaCl2, 0.8 MgSO4, 2.4 NaHCO3, 5 HEPES, 100 IU/ml penicillin, 100 μg/ml streptomycin, pH 7.4) for up to 10 days at 20° C. Transmembranous ionic currents were recorded as in conventional two-electrode voltage clamp technology with a holding potential of −70 mV (P. Bloms-Funke P, M. Madeja, U. Muβhoff, E.-J. Speckman, Neuroscience Letters, Vol. 205, p. 115, 1996). […] To test the effects of substances brought about via the glycine B-binding site of the NMDA receptor channel, the glycine dosage/response curve was recorded with and without the respective compound according to the invention. […] The data was analyzed using Igor-Pro software (Version 3.1, WaveMetrics USA). […]

Each structure is given as a SMILES string.

`O=C(O)C1Nc2cc(Cl)cc(Cl)c2C2C=CCC12` (centres unmarked) [Example 2, 7,9-dichloro-3a,4,5,9b-tetrahydro-3H-cyclopenta[c]quinoline-4-carboxylic Acid]: the Kb (NMDA 100 μmol/l with glycine 0-100 μmol/l, oocytes injected with rat brain RNA, read-out: NMDA/glycine-induced ionic currents pA2 value of glycine dosage/response curve (converted)) was 398 nM. Besides, the “Effect on the glycine dosage/response curve (FIG. 1)” value (RNA-injected oocytes, amplitude standardized to NMDA/glycine (100/10 μmol/l)) is on record as “displacement of the glycine dosage/response curve to the right”.
